Experimental findings from patent US20240024299A1, “USE OF DRUGS THAT STIFFEN MATURE GAMETOCYTES FOR BLOCKING TRANSMISSION OF PLASMODIUM PARASITES” (INSERM (INSTITUT NATIONAL DE LA SANTÉ ET DE LA RECHERCHE …, priority 2020, published 2024) are described below.

Test [1] concerns P. falciparum gametocytes. Put plainly: microsphiltration (spleen-mimetic microfilters) retention / stiffening of mature gametocytes, dose-response. Particulars: for activity by readout (readout 1 male and female gametocytes staining vs readout 2 specific female gametocytes staining): dose-response curves, data not shown; for IC50: Plasmodium falciparum, mature gametocytes, retention in microsphiltration, read-out: stiffening effect IC50. It is filed as cell-based, Plasmodium falciparum. The text has this: FIG. 1. Screening progression cascade. ReFrame library (12,805 compounds), Kinase Inhibitors Box (350 compounds) and Pathogen Box (400 compounds) were screened with “microsphiltration” against P. falciparum gametocytes. Hits from primary screening were further selected by dose-response analysis (DRA). Confirmed 82 hits were divided in 7 groups, based on their activity and molecular target (data not shown). Hits repartition is shown in parenthesis, along with the name of one representative hit for each group. A score was assigned to each DRA confirmed hit, based on route of administration, safety in human clinical trials, pharmacokinetic and affordability for developing countries, leading to final selection of 3 hits for further in vitro and in vivo confirmation experiments.
FIG. 2. Representative single 384-wells plate scatterplots of primary screening. Each well of a screening plate is loaded with pre-spotted compounds while two columns are left for controls. They are represented as follows: empty circles for non-selected compounds and black circles for hits (352 wells), black squares for negative control (DMSO 0.05%, 16 wells), black squares for main positive control (NITD609 0.5 μM, 8 wells), light black empty squares for retention positive control (Calyculin A 75 nM, 6 wells), black squares for killing control (Gentian Violet 50 μM, 2 wells). For each well, killing and retention values are calculated and distributed in a “xy” graph. Two graphs are made for each plate: one using male and female gametocytes imaging (“readout 1”, left panel) and one using specific female gametocytes imaging (“readout 2”, right panel). For each graph, a linear regression (solid line) is tracked with 95% confidence interval (dashed lines). The compounds beyond the upper confidence interval in both readouts are identified as hits. A) Plate number 15 of ReFRAME library: 8 hits with readout 1, 11 hits with readout 2, 4 hits (shared between the two readouts) finally identified. B) Plate number 9 of ReFRAME library: 7 hits with readout 1, 11 hits with readout 2, 5 hits finally individuated, including NITD609 (highlighted with an arrow). In few cases, compounds with only killing effect were added to hitlist.
FIG. 4. Examples of dose-response curves (DRCs) of confirmed hits. Every hit from primary screening has been re-tested in duplicate (ReFrame library) and in triplicate (Kinase Inhibitors and Pathogen Box libraries) for dose-response, starting from 5 (10 μM for ReFrame hits) to 5 nM. For each of them, a DRC for killing and retention was tracked and IC50 was calculated (one for readout 1, male and female gametocytes staining, one for readout 2, specific female gametocytes staining). Error bars denote the standard deviation. The first curve is referred to killing effect and the second curve to retention effect normalized on DMSO negative control. Chemical structure of the compound is represented for each DRC. Hits and readouts have been selected among the ones with lowest variability, with the addition of TD-6450 and L-THP due to their high priority. […] Readout 2 has been selected for all of them except APPCL. […] Readout 2 used for all of them. […] Readout 2 used for all of them except TD-6450.

Test [2] deals with P. falciparum gametocytes. Kind of test: killing of mature gametocytes in the microsphiltration screen, dose-response. It counts as cell-based. Particulars: Plasmodium falciparum, read-out: killing effect IC50. The text has this:
FIG. 1. Screening progression cascade. ReFrame library (12,805 compounds), Kinase Inhibitors Box (350 compounds) and Pathogen Box (400 compounds) were screened with “microsphiltration” against P. falciparum gametocytes. Hits from primary screening were further selected by dose-response analysis (DRA). Confirmed 82 hits were divided in 7 groups, based on their activity and molecular target (data not shown). Hits repartition is shown in parenthesis, along with the name of one representative hit for each group. […]
FIG. 2. […] For each well, killing and retention values are calculated and distributed in a “xy” graph. Two graphs are made for each plate: one using male and female gametocytes imaging (“readout 1”, left panel) and one using specific female gametocytes imaging (“readout 2”, right panel). […] The compounds beyond the upper confidence interval in both readouts are identified as hits. A) Plate number 15 of ReFRAME library: 8 hits with readout 1, 11 hits with readout 2, 4 hits (shared between the two readouts) finally identified. B) Plate number 9 of ReFRAME library: 7 hits with readout 1, 11 hits with readout 2, 5 hits finally individuated, including NITD609 (highlighted with an arrow). […]
FIG. 4. […] For each of them, a DRC for killing and retention was tracked and IC50 was calculated (one for readout 1, male and female gametocytes staining, one for readout 2, specific female gametocytes staining). […]

Consider `O=C(NCCN1CCCC1)c1cc(NCCCCN2CCC(F)(F)CC2)nc2ccc(Cl)cc12` [MMV667494], for which the “activity by readout (readout 1 male and female gametocytes staining vs readout 2 specific female gametocytes staining)” value in test [1] is reported as “specifically actives on readout 2”.
For `C[C@H]1Cc2c([nH]c3cc(Cl)c(F)cc23)[C@@]2(N1)C(=O)Nc1ccc(Cl)cc12` [NITD609, (1R,3S)-5′,7-Dichloro-6-fluoro-3-methyl-spiro[2,3,4,9-tetrahydropyrido[3,4-b]indole-1,3′-indoline]-2′-one], the concentration for half-maximal inhibition (IC50) (commonly the concentration at which inhibition is half-maximal) in test [2] was determined as 0.1 µM; in test [1] it was 0.05 µM.
Regarding `CC(C)(CN)c1nc(-c2ccc(Cl)c(O)c2)c(-c2ccnc(N)n2)[nH]1` [MMV030734], in test [1], the “activity by readout (readout 1 male and female gametocytes staining vs readout 2 specific female gametocytes staining)” value is reported as “specifically actives on readout 2”.
In the case of `CNC(=O)N1C[C@@H](C)N(c2ccc(C(=O)Nc3ccc(-c4ccc(-c5c[nH]c([C@@H]6CCCN6C(=O)[C@@H](NC(=O)OC)C(C)C)n5)cc4)c(OC(F)(F)F)c3)cn2)C[C@@H]1C` [TD-6450, carbamic acid, N-[(1S)-1-[[(2S)-2-[5-[4′-[[[6-[(2R,5S)-2,5-dimethyl-4-[(methylamino)carbonyl]-1-piperazinyl]-3-pyridinyl]carbonyl]amino]-2′-(trifluoromethoxy) [1,1′-biphenyl]-4-yl]-1H-imidazol-2-yl]-1-pyrrolidinyl]carbonyl]-2-methylpropyl]-, methyl ester], in test [1], the 50% inhibitory concentration (IC50) amounted to 0.6 µM.
In the case of `COc1cc2c(cc1OC)[C@@H]1Cc3ccc(OC)c(OC)c3CN1CC2` [L-THP, (13aS)-2,3,9,10-tetramethoxy-6,8,13,13a-tetrahydro-5H-isoquinolino[2,1-b]isoquinoline], the half-inhibitory concentration (IC50) in test [1] is 0.005 µM.
